Test results taken from BigSolDB 2.1.

CCCCc1nc(Cl)c(CO)n1Cc1ccc(-c2ccccc2-c2nnn[n-]2)cc1.[K+]
solubility (mole fraction)
Details | in cyclohexane | in ethanol | in ethyl acetate | in isopropanol | in methanol | in n-butyl acetate | in n-pentanol | in n-propanol
293.15 K | 3.4e-05 | 0.0381 | 0.00251 | 0.0027 | 0.0277 | 0.00271 | 0.0446 | 0.026
303.15 K | 2.87e-05 | 0.0473 | 0.00152 | 0.00279 | 0.0375 | 0.00238 | 0.0311 | 0.0272
313.15 K | 3.05e-05 | 0.0547 | 0.00252 | 0.00413 | 0.0445 | 0.000968 | 0.0287 | 0.0299
323.15 K | 2.72e-05 | 0.0702 | 0.00138 | 0.00547 | 0.0483 | 0.00121 | 0.0234 | 0.0376
333.15 K | 2.88e-05 | 0.0739 | 0.00288 | 0.00696 | 0.0508 | 0.00193 | 0.0205 | 0.0452
343.15 K | 2.59e-05 | 0.0785 | 0.00279 | 0.0117 | 0.0533 | 0.000907 | 0.0218 | 0.0499
